Legend:
Format in all cases: cell-based
in vitro = settings: for respective culture cells; read-out: toxicity CC50
[1] = system: HIV (human immunodeficiency virus); experiment: Inhibition of HIV cytopathic effect, MTT colorimetric method; settings: HIV produced with either MT-4 cells or Hela CD4 cells; in words, figures only in FIG. 2
Method: The antiviral effect against HIV (human immunodeficiency virus) and cytotoxicity of the PM-1001 and PM-1002 of this invention synthesized as described above were examined in comparison with those of K6[C0W12O40]. (called PM-1003), i.e., a heteropolyoxotungstate salt having perfect Keggin structure and conventional dextran sulfate (DS5000) and azidothymidine (AZT) respectively utilized because of their excellent anti-HIV effect. The inhibition of cell growth of HIV was measured according to the MTT colorimetric method.
The tissue culture cells were MT-4 and Hela CD4. The HIV was prepared from the supernatant solutions of the culture fluids of HIV-producing MT-4 and HIV cells, or Hela CD4 and HIV cells. […] In the MTT colorimetry, the absorbance is measured by means of a colorimeter using a wavelength of 540 nm, to obtain the vital cell number proportional to the absorbance. If all the cells are dead due to virus infection, the absorbance becomes almost zero.
(§1) With the concentration of each drug such as PM-1001 as a parameter, the cell growth rate was examined. […] That is, the drug concentration capable of improving the absorbance of […] up to 50% (to prevent cytocidal cell degeneration) is obtained and expressed in micromoles (μM). […] ND stands for “not determined”.

MT-4 and Hela CD4 cells = experiment: Cytotoxicity in the anti-HIV test, MTT colorimetric method; settings: MT-4 cells or Hela CD4 cells; in words
Method: The tissue culture cells were MT-4 and Hela CD4. The HIV was prepared from the supernatant solutions of the culture fluids of HIV-producing MT-4 and HIV cells, or Hela CD4 and HIV cells. The media were 10% fetal calf serum, and for culturing, 0.2 ml of MT-4 cells or Hela CD4 cells and 0.2 ml of HIV cells were placed in each well of a 24-well culture tray. After virus adsorption (the virus infectivity titer was 100-CCID50 per about 10^5 cells), each drug such as PM-1001 diluted in a medium was added, to make a total amount of 1.0 ml, and the mixture was cultured at 37° C. for 4 to 6 days. As controls, cells not infected with HIV and cells untreated with any drug such as PM-1001 were used. […] In the MTT colorimetry, the absorbance is measured by means of a colorimeter using a wavelength of 540 nm, to obtain the vital cell number proportional to the absorbance. If all the cells are dead due to virus infection, the absorbance becomes almost zero.
as §1

[2] = system: DFV, FluV-A, RSV, PfluV, CDV, HIV; experiment: Spectrum of antiviral activity (FIG. 3), MTT colorimetric method; settings: all viruses of FIG. 3; in words

Compound | CC50 (in vitro) | potent efficacy against HIV [1] | adverse effects (cytotoxicity) (MT-4 and Hela CD4 cells) | antiviral effects (FIG. 3, EC50 comparison) [2]
NC(=O)c1ncn([C@@H]2O[C@H](CO)[C@@H](O)[C@H]2O)n1 [ribavirin] | > 100 µM | – | – | –
K6H4[(SbW9O33)2V3O3].29.5H2O [PM-1001] | – | very high potent efficacies | low adverse effects | remarkably excellent antiviral effects
K6H6[(SbW9O33)2V3O3].29.5H2O [PM-1002] | – | very high potent efficacies | low adverse effects | remarkably excellent antiviral effects

— patent publication US6565890B2, “Antiviral drugs containing heteropolyanions” (priority 2001, dated 2003)
